Measurements: article PMC5218480 (PLoS ONE, 2017)

System: MV-4-11 cells
Assay: Gene expression microarray analysis (Affymetrix PrimeView) and GSEA
Type: cell-based, human
Parameters: RFU PODN (11730768_x_at) / Fold change /veh PODN (11730768_x_at) / RFU LINC00158 (11744669_a_at) / Fold change /veh LINC00158 (11744669_a_at) / RFU DUSP10 (11751237_a_at) / Fold change /veh DUSP10 (11751237_a_at) / RFU ID3 (11757404_x_at) / Fold change /veh ID3 (11757404_x_at) / RFU PLEKHG5 (11737974_s_at) / Fold change /veh PLEKHG5 (11737974_s_at) / RFU LRRC4B (11730491_at) / Fold change /veh LRRC4B (11730491_at) / RFU GIMAP4 (11747438_a_at) / Fold change /veh GIMAP4 (11747438_a_at) / RFU KRT8 (11758183_x_at) / Fold change /veh KRT8 (11758183_x_at) / RFU CNN1 (11734310_a_at) / Fold change /veh CNN1 (11734310_a_at) / RFU VPS37D (11726825_at) / Fold change /veh VPS37D (11726825_at) / RFU C10orf10 (11716522_x_at) / Fold change /veh C10orf10 (11716522_x_at) / RFU KIR2DL2 /// KIR2DL4 /// KIR2DL5A /// KIR2DL5B /// KIR2DS1 /// KIR2DS2 /// KIR2DS3 /// KIR2DS4 /// KIR3DL3 /// KIR3DL3 /// KIR3DS1 (11738374_at) / Fold change /veh KIR2DL2 /// KIR2DL4 /// KIR2DL5A /// KIR2DL5B /// KIR2DS1 /// KIR2DS2 /// KIR2DS3 /// KIR2DS4 /// KIR3DL3 /// KIR3DL3 /// KIR3DS1 (11738374_at) / RFU C1QL1 (11718748_at) / Fold change /veh C1QL1 (11718748_at) / RFU TMPRSS4 (11747572_a_at) / Fold change /veh TMPRSS4 (11747572_a_at) / RFU HAMP (11756126_x_at) / Fold change /veh HAMP (11756126_x_at) / RFU RNFT2 (11725882_a_at) / Fold change /veh RNFT2 (11725882_a_at) / RFU NR4A2 (11747474_a_at) / Fold change /veh NR4A2 (11747474_a_at) / RFU ABCC12 (11746883_a_at) / Fold change /veh ABCC12 (11746883_a_at) / RFU TMEM136 (11760407_x_at) / Fold change /veh TMEM136 (11760407_x_at) / RFU CLDN22 /// WWC2 (11732394_at) / Fold change /veh CLDN22 /// WWC2 (11732394_at) / RFU HLA-DPB1 (11760878_x_at) / Fold change /veh HLA-DPB1 (11760878_x_at) / RFU SPINT1 (11716480_a_at) / Fold change /veh SPINT1 (11716480_a_at) / RFU GAP43 (11754022_s_at) / Fold change /veh GAP43 (11754022_s_at) / RFU A4GNT (11735810_at) / Fold change /veh A4GNT (11735810_at) / RFU PRB3 (11715151_x_at) / Fold change /veh PRB3 (11715151_x_at) / RFU TUBB4B (11761932_at) / Fold change /veh TUBB4B (11761932_at) / RFU CAPN14 (11732068_a_at) / Fold change /veh CAPN14 (11732068_a_at) / RFU TMCC2 (11721928_a_at) / Fold change /veh TMCC2 (11721928_a_at) / RFU IRGQ (11745062_a_at) / Fold change /veh IRGQ (11745062_a_at) / RFU FAM174B (11720279_a_at) / Fold change /veh FAM174B (11720279_a_at) / RFU TMPRSS4 (11748680_a_at) / Fold change /veh TMPRSS4 (11748680_a_at) / RFU FAM212B (11763350_a_at) / Fold change /veh FAM212B (11763350_a_at) / RFU PLEKHG5 (11743358_a_at) / Fold change /veh PLEKHG5 (11743358_a_at) / RFU ZSCAN30 (11745921_a_at) / Fold change /veh ZSCAN30 (11745921_a_at) / RFU CMKLR1 (11741424_a_at) / Fold change /veh CMKLR1 (11741424_a_at) / RFU LOC101060620 /// MAPK8IP1 (11723275_at) / Fold change /veh LOC101060620 /// MAPK8IP1 (11723275_at) / RFU SPTSSB (11747773_x_at) / Fold change /veh SPTSSB (11747773_x_at) / RFU PRSS12 (11739890_at) / Fold change /veh PRSS12 (11739890_at) / RFU BIN1 (11741810_x_at) / Fold change /veh BIN1 (11741810_x_at) / RFU WNT11 (11732464_a_at) / Fold change /veh WNT11 (11732464_a_at) / RFU C10orf10 (11716521_a_at) / Fold change /veh C10orf10 (11716521_a_at) / RFU C5orf56 (11738089_at) / Fold change /veh C5orf56 (11738089_at) / RFU CYB561 (11721691_x_at) / Fold change /veh CYB561 (11721691_x_at) / RFU ANKRD19P (11752326_a_at) / Fold change /veh ANKRD19P (11752326_a_at) / RFU OR2T12 /// OR2T33 /// OR2T8 (11738714_s_at) / Fold change /veh OR2T12 /// OR2T33 /// OR2T8 (11738714_s_at) / RFU VCAN (11748164_a_at) / Fold change /veh VCAN (11748164_a_at) / RFU JSRP1 (11732532_at) / Fold change /veh JSRP1 (11732532_at) / RFU KRTAP10-11 (11738290_x_at) / Fold change /veh KRTAP10-11 (11738290_x_at) / RFU MYO3A (11730013_a_at) / Fold change /veh MYO3A (11730013_a_at) / RFU EBF3 (11725865_a_at) / Fold change /veh EBF3 (11725865_a_at) / RFU CAMK2N1 (11719241_x_at) / Fold change /veh CAMK2N1 (11719241_x_at) / RFU C5orf56 (11738088_a_at) / Fold change /veh C5orf56 (11738088_a_at) / RFU OLFML3 (11715873_a_at) / Fold change /veh OLFML3 (11715873_a_at) / RFU LOC100653217 /// NTM (11731650_a_at) / Fold change /veh LOC100653217 /// NTM (11731650_a_at) / RFU MAPK11 (11762145_a_at) / Fold change /veh MAPK11 (11762145_a_at) / RFU FIZ1 (11724087_x_at) / Fold change /veh FIZ1 (11724087_x_at) / RFU OASL (11726364_x_at) / Fold change /veh OASL (11726364_x_at) / RFU SOX15 (11748057_x_at) / Fold change /veh SOX15 (11748057_x_at) / RFU CD79A (11719716_a_at) / Fold change /veh CD79A (11719716_a_at) / RFU HIST1H1D (11736915_at) / Fold change /veh HIST1H1D (11736915_at) / RFU CASKIN2 (11723855_a_at) / Fold change /veh CASKIN2 (11723855_a_at) / RFU LOC730098 (11760151_x_at) / Fold change /veh LOC730098 (11760151_x_at) / RFU OR4N2 (11742367_at) / Fold change /veh OR4N2 (11742367_at) / RFU PRRT2 (11749266_a_at) / Fold change /veh PRRT2 (11749266_a_at) / RFU SNX32 (11753110_a_at) / Fold change /veh SNX32 (11753110_a_at) / RFU CDHR5 (11726645_a_at) / Fold change /veh CDHR5 (11726645_a_at) / RFU RCAN1 (11760418_a_at) / Fold change /veh RCAN1 (11760418_a_at) / RFU FAM167A (11723789_a_at) / Fold change /veh FAM167A (11723789_a_at) / RFU FAM26E (11764081_at) / Fold change /veh FAM26E (11764081_at) / RFU ISYNA1 (11749810_s_at) / Fold change /veh ISYNA1 (11749810_s_at) / RFU ACY1 (11761880_at) / Fold change /veh ACY1 (11761880_at) / RFU 11764098_at / Fold change /veh 11764098_at / RFU SAMD14 (11745864_x_at) / Fold change /veh SAMD14 (11745864_x_at) / RFU NPB (11741838_a_at) / Fold change /veh NPB (11741838_a_at) / RFU TMPRSS6 (11731388_a_at) / Fold change /veh TMPRSS6 (11731388_a_at) / RFU KRTAP10-2 (11738614_at) / Fold change /veh KRTAP10-2 (11738614_at) / RFU ARHGAP8 /// PRR5-ARHGAP8 (11727945_x_at) / Fold change /veh ARHGAP8 /// PRR5-ARHGAP8 (11727945_x_at) / RFU KRTAP5-7 /// NADSYN1 (11734609_at) / Fold change /veh KRTAP5-7 /// NADSYN1 (11734609_at) / RFU RASL12 (11751679_a_at) / Fold change /veh RASL12 (11751679_a_at) / RFU CDKN2B (11736163_a_at) / Fold change /veh CDKN2B (11736163_a_at) / RFU PRF1 (11729649_at) / Fold change /veh PRF1 (11729649_at) / RFU, ZNF638 /// ZNF638-IT1 / Fold change vs veh, ZNF638 /// ZNF638-IT1 / RFU, PANK3 / Fold change vs veh, PANK3 / RFU, SH3YL1 / Fold change vs veh, SH3YL1 / RFU, ZEB2 / Fold change vs veh, ZEB2 / RFU, NRIP1 / Fold change vs veh, NRIP1 / RFU, PTTG1IP / Fold change vs veh, PTTG1IP / RFU, CAPN2 / Fold change vs veh, CAPN2 / RFU, MED14 / Fold change vs veh, MED14 / RFU, SNORA58 / Fold change vs veh, SNORA58 / RFU, C1orf63 / Fold change vs veh, C1orf63 / RFU, LRRFIP1 / Fold change vs veh, LRRFIP1 / RFU, NDUFAF7 / Fold change vs veh, NDUFAF7 / RFU, SLC12A2 / Fold change vs veh, SLC12A2 / RFU, IBTK / Fold change vs veh, IBTK / RFU, ESF1 / Fold change vs veh, ESF1 / Fold change vs veh, TMEM50B / RFU, TAOK1 / Fold change vs veh, TAOK1 / RFU, ACBD3 / Fold change vs veh, ACBD3 / RFU, TMA16 / Fold change vs veh, TMA16 / RFU, RWDD3 / Fold change vs veh, RWDD3 / RFU, BCAT1 / Fold change vs veh, BCAT1 / RFU, EDEM3 / Fold change vs veh, EDEM3 / RFU, TMEM33 / Fold change vs veh, TMEM33 / RFU, WDR75 / Fold change vs veh, WDR75 / RFU, AHCTF1 / Fold change vs veh, AHCTF1 / RFU, TFRC / Fold change vs veh, TFRC / RFU, ZDHHC17 / Fold change vs veh, ZDHHC17 / RFU, NOM1 / Fold change vs veh, NOM1 / RFU, ARL8B / Fold change vs veh, ARL8B / RFU, ZBTB11 / Fold change vs veh, ZBTB11 / RFU, TAMM41 / Fold change vs veh, TAMM41 / RFU, KIAA1704 /// LOC100996395 / Fold change vs veh, KIAA1704 /// LOC100996395 / RFU, ING1 / Fold change vs veh, ING1 / RFU, TRMT61B / Fold change vs veh, TRMT61B / RFU, FUBP3 / Fold change vs veh, FUBP3 / RFU, TP53 / Fold change vs veh, TP53 / RFU, TNKS2 / Fold change vs veh, TNKS2 / RFU, ZFP14 / Fold change vs veh, ZFP14 / RFU, ACTR2 / Fold change vs veh, ACTR2 / RFU, PPP3R1 / Fold change vs veh, PPP3R1 / RFU, PIK3R1 / Fold change vs veh, PIK3R1 / RFU, HNRNPA1 / Fold change vs veh, HNRNPA1 / RFU, RNF170 / Fold change vs veh, RNF170 / RFU, ZNF28 / Fold change vs veh, ZNF28 / RFU, RNGTT / Fold change vs veh, RNGTT / RFU, OGT / Fold change vs veh, OGT / RFU, BRD1 / Fold change vs veh, BRD1 / RFU, MARS / Fold change vs veh, MARS / RFU, ZNF655 / Fold change vs veh, ZNF655 / RFU, FAHD1 / Fold change vs veh, FAHD1 / RFU, BDP1 / Fold change vs veh, BDP1 / RFU, LRRCC1 / Fold change vs veh, LRRCC1 / RFU, ARID1A / Fold change vs veh, ARID1A / RFU, ZNF146 / Fold change vs veh, ZNF146 / RFU, ZNF330 / Fold change vs veh, ZNF330 / RFU, GPN3 / Fold change vs veh, GPN3 / RFU, C9orf123 / Fold change vs veh, C9orf123 / RFU, N4BP2L2 / Fold change vs veh, N4BP2L2 / RFU, ARFIP1 / Fold change vs veh, ARFIP1 / RFU, FAM179B / Fold change vs veh, FAM179B / RFU, BCL10 / Fold change vs veh, BCL10 / RFU, UHRF1BP1L / Fold change vs veh, UHRF1BP1L / RFU, BET1 / Fold change vs veh, BET1 / RFU, CNOT2 / Fold change vs veh, CNOT2 / RFU, ZNF268 / Fold change vs veh, ZNF268 / Fold change vs veh, ZNF507 / RFU, DGCR2 / Fold change vs veh, DGCR2 / RFU, WDSUB1 / Fold change vs veh, WDSUB1 / Fold change vs veh, HSP90B1 /// MIR3652 / RFU, ADSS / Fold change vs veh, ADSS / RFU, GK / Fold change vs veh, GK / RFU, ZNF148 / Fold change vs veh, ZNF148 / RFU, TAF9 / Fold change vs veh, TAF9 / RFU, SLC1A5 / Fold change vs veh, SLC1A5 / RFU, SLMO2 / Fold change vs veh, SLMO2 / RFU, ABCC4 / Fold change vs veh, ABCC4 / RFU, LOC101060439 /// RAP1B / Fold change vs veh, LOC101060439 /// RAP1B / RFU, RFX7 / Fold change vs veh, RFX7 / RFU, GTPBP10 / Fold change vs veh, GTPBP10 / RFU, CNEP1R1 / Fold change vs veh, CNEP1R1 / RFU, BIVM-ERCC5 /// ERCC5 / Fold change vs veh, BIVM-ERCC5 /// ERCC5 / RFU, ILF3 / Fold change vs veh, ILF3 / RFU 11762660_at / Fold change /veh 11762660_at / RFU VCAN (11757783_s_at) / Fold change /veh VCAN (11757783_s_at) / RFU DDX43 (11728927_at) / Fold change /veh DDX43 (11728927_at) / RFU KRT8 (11758188_x_at) / Fold change /veh KRT8 (11758188_x_at) / RFU NKD1 (11759106_at) / Fold change /veh NKD1 (11759106_at) / RFU SRD5A1 (11742802_a_at) / Fold change /veh SRD5A1 (11742802_a_at) / RFU TPSAB1 /// TPSB2 (11721975_s_at) / Fold change /veh TPSAB1 /// TPSB2 (11721975_s_at) / RFU GSTM3 (11746129_a_at) / Fold change /veh GSTM3 (11746129_a_at) / RFU IL23R (11737362_x_at) / Fold change /veh IL23R (11737362_x_at) / RFU TMEM51 (11727254_a_at) / Fold change /veh TMEM51 (11727254_a_at) / RFU PIWIL2 (11732686_x_at) / Fold change /veh PIWIL2 (11732686_x_at) / RFU ORM1 (11744905_x_at) / Fold change /veh ORM1 (11744905_x_at) / RFU CCDC152 (11743942_at) / Fold change /veh CCDC152 (11743942_at) / RFU ECM1 (11717891_a_at) / Fold change /veh ECM1 (11717891_a_at) / RFU IL23R (11748794_a_at) / Fold change /veh IL23R (11748794_a_at) / RFU TNFAIP8L3 (11732012_x_at) / Fold change /veh TNFAIP8L3 (11732012_x_at) / RFU MBOAT4 (11741988_at) / Fold change /veh MBOAT4 (11741988_at) / RFU 11764193_at / Fold change /veh 11764193_at / RFU TMEM53 (11763286_at) / Fold change /veh TMEM53 (11763286_at) / RFU MAGEB2 (11727129_at) / Fold change /veh MAGEB2 (11727129_at) / RFU TMEM200A (11744735_a_at) / Fold change /veh TMEM200A (11744735_a_at) / RFU CCDC152 (11751479_a_at) / Fold change /veh CCDC152 (11751479_a_at) / RFU FAM211A (11726209_a_at) / Fold change /veh FAM211A (11726209_a_at) / RFU RGS16 (11746705_a_at) / Fold change /veh RGS16 (11746705_a_at) / RFU VCAN (11755009_s_at) / Fold change /veh VCAN (11755009_s_at) / RFU RHOB (11743442_s_at) / Fold change /veh RHOB (11743442_s_at) / RFU RGS16 (11720943_a_at) / Fold change /veh RGS16 (11720943_a_at) / RFU RGS16 (11720944_at) / Fold change /veh RGS16 (11720944_at) / RFU, VPS4B / Fold change vs veh, VPS4B / RFU, CREB1 / Fold change vs veh, CREB1 / RFU, DNAJC13 / Fold change vs veh, DNAJC13 / RFU, GNAQ / Fold change vs veh, GNAQ / RFU, CDK5R1 / Fold change vs veh, CDK5R1 / RFU, ZRANB3 / Fold change vs veh, ZRANB3 / RFU, CUL4A / Fold change vs veh, CUL4A / RFU, CCNY / Fold change vs veh, CCNY / RFU, UFL1 / Fold change vs veh, UFL1 / RFU, COG3 / Fold change vs veh, COG3 / RFU, DIAPH2 / Fold change vs veh, DIAPH2 / RFU, SKA2 / Fold change vs veh, SKA2 / RFU, AFF3 / Fold change vs veh, AFF3 / RFU, LMF1 / Fold change vs veh, LMF1 / RFU, IPO11 / Fold change vs veh, IPO11 / RFU, DFFB / Fold change vs veh, DFFB / RFU, FOXP1 / Fold change vs veh, FOXP1 / RFU, CARD8 / Fold change vs veh, CARD8 / RFU, STRN3 / Fold change vs veh, STRN3 / RFU, ADK / Fold change vs veh, ADK / RFU, RASSF2 / Fold change vs veh, RASSF2 / RFU, WIPF1 / Fold change vs veh, WIPF1 / RFU, LARP1B / Fold change vs veh, LARP1B / RFU, RASA1 / Fold change vs veh, RASA1 / RFU, RB1 / Fold change vs veh, RB1 / RFU, PPFIA1 / Fold change vs veh, PPFIA1 / RFU, MAT2A / Fold change vs veh, MAT2A / RFU, CCT5 / Fold change vs veh, CCT5 / RFU, WDR92 / Fold change vs veh, WDR92 / RFU, CUX1 / Fold change vs veh, CUX1 / RFU, TTC7A / Fold change vs veh, TTC7A / RFU, TMEM135 / Fold change vs veh, TMEM135 / RFU, DEPTOR / Fold change vs veh, DEPTOR / RFU, CPM / Fold change vs veh, CPM / RFU, DNAJB6 / Fold change vs veh, DNAJB6 / RFU, CACNA2D3 / Fold change vs veh, CACNA2D3 / RFU, DTX4 / Fold change vs veh, DTX4 / RFU, TFCP2 / Fold change vs veh, TFCP2 / RFU, GMCL1 /// GMCL1P1 / Fold change vs veh, GMCL1 /// GMCL1P1 / RFU, AEBP2 / Fold change vs veh, AEBP2 / RFU, SNHG1 /// SNORD22 /// SNORD25 /// SNORD26 /// SNORD27 /// SNORD28 /// SNORD29 /// SNORD31 / Fold change vs veh, SNHG1 /// SNORD22 /// SNORD25 /// SNORD26 /// SNORD27 /// SNORD28 /// SNORD29 /// SNORD31 / Fold change (Aza/veh), C12orf56 (ProbeSet 11735607_a_at) / Fold change (ACY-1035/veh), C12orf56 (ProbeSet 11735607_a_at) / Fold change (Aza/veh), FGFR1OP (ProbeSet 11751329_s_at) / Fold change (ACY-1035/veh), FGFR1OP (ProbeSet 11751329_s_at) / Fold change (Aza/veh), VPS36 (ProbeSet 11739960_a_at) / Fold change (ACY-1035/veh), VPS36 (ProbeSet 11739960_a_at) / RFU SYPL1 (11715823_x_at) / Fold change /veh SYPL1 (11715823_x_at) / RFU IGFBP7 (11715501_s_at) / Fold change /veh IGFBP7 (11715501_s_at) / RFU REEP3 (11722064_at) / Fold change /veh REEP3 (11722064_at) / RFU IGLL1 (11728026_x_at) / Fold change /veh IGLL1 (11728026_x_at): dose or concentration left out as unconfirmed
Settings: MV-4-11 cells, 48 hours

`Nc1ccc(-c2cccs2)cc1NC(=O)c1ccc2c(c1)cc(C1CC1)n2CCN1CCOCC1` [ACY-1035] was tested, and the “RFU TMPRSS6 (11731388_a_at)” value was 73.78 RFU.
